Experimental findings from US20210361774A1, “DEGRADERS OF WILD-TYPE AND MUTANT FORMS OF LRRK2” (DANA-FARBER CANCER INSTITUTE, INC., priority 2018, published 2021) are described below.

Assay [1] concerns the target T1, LRRK2 R1441C homozygous knock-in MEFs (Mus musculus, UniProt Q5S006, R1441C).
T1 construct: endogenous in cells; host or cells: LRRK2 R1441C homozygous knock-in MEFs
The experiment in a line: Cellular degradation of LRRK2 in R1441C homozygous cells, Western blot. The following applies: R1441C homozygous cells (FIG. 3B), time course, 0 nM-1000 nM. It counts as cell-based. The method, then:
(§1) Cell lines used: Mouse embryonic fibroblast (MEF) WT, LRRK2 homozygous knock-ins in MEFs [R1441C; VPS35N(D620N); G2019S].
(§2) Tested concentration of LRRK2 degraders: 0 nM, 10 nM, 30 nM, 100 nM, 300 nM, 1000 nM. Additional concentrations tested for inventive compound 3: 2 uM, 5 uM and 10 uM.
(§3) Complete growth medium: DMEM supplemented with: 10% Fetal Bovine Serum; 1% pen/strep; 1% L-Glutamine; 1% MEM Non-essential Amino Acid Solution; 1% sodium pyruvate.
(§4) Commercial and in-house purified antibodies: • (a) Mouse anti-LRRK2/Dardarin antibody from Antibodies, Inc. (Cat #75-253). • (b) Rabbit monoclonal antibodies for total LRRK2 (UDD3) and pS935-LRRK2 (UDD2) were purified at the University of Dundee (as described in Dzamko et al., PLoS One 7(6): e39132 (2012). • (c) Loading controls: anti-α-tubulin (Cell Signaling Technology #5174); anti-GAPDH (Santa Cruz Biotechnology Cat. #sc-32233) • (d) (p)Rab10 antibodies: rabbit anti-RAB10 (phospho T73) antibody [MJF-R21] (ab230261); mouse MJFF-total Rab10 monoclonal antibody were generated by nanoTools (www.nanotools.de); rabbit Rab10 total was from Cell Signaling Technology (Rab10 (D36C4) XP® Rabbit mAb #8127)
Treatment: WT MEF, R1441C, VPS35N and G2019S mutants' cells were plated at equal density into 6-well plates in a final volume of 3 mL of complete growth medium/well. Degraders were reconstituted in DMSO and used at 1:1000 in cells i.e. 3 μl/3 ml. […]

Assay [2] concerns LRRK2 pS935. The experiment in a line: Inhibition of phosphorylation of S935, Western blot in MEFs. The format is cell-based, Mouse. The following applies: Western blot, time course, 0 nM-1000 nM. How it is done: as §1, §2, §3, §4
(§5) Treatment: WT MEF, R1441C, VPS35N and G2019S mutants' cells were plated at equal density into 6-well plates in a final volume of 3 mL of complete growth medium/well. Degraders were reconstituted in DMSO and used at 1:1000 in cells i.e. 3 μl/3 ml. Treatment began when cells were >60% confluent, starting from a 48-hour time point, followed by a 24-hour time point, a 6-hour time point and finally a 1-hour time point.
(§6) Cell lysis: Media were aspirated, plates were placed on ice and cells were washed with Dulbecco's phosphate-buffered saline (DPBS). Fifty microliters of an ice-cold lysis buffer containing 50 mM Tris-HCl, pH 7.5, 1% (v/v) Triton X-100, 1 mM ethylene glycol-bis(μ-aminoethyl ether)-N,N,N′,N′-tetraacetic acid (EGTA), 1 mM sodium orthovanadate, 50 mM NaF, 0.1% (v/v) 2-mercaptoethanol, 10 mM 2-glycerophosphate, 5 mM sodium pyrophosphate, 0.1 μg/ml microcystin-LR (Enzo Life Sciences), 270 mM sucrose and complete EDTA-free protease inhibitor cocktail (Sigma-Aldrich Cat #11836170001) was added per well. Lysates were centrifuged at 20,817 g (14,000 rpm) for 15 min at 4° C. and supernatants were used to determine protein concentration using Bradford assay (Pierce™ Coomassie (Bradford) Protein Assay Kit, Thermo Scientific™ Cat #23200) and for Western blot analysis.
(§7) Western blot analysis: Cell lysates were mixed with 4× SDS-PAGE sample buffer [50 mM Tris-HCl, pH 6.8, 2% (w/v) SDS, 10% (v/v) glycerol, 0.02% (w/v) Bromophenol Blue and 1% (v/v) 2-mercaptoethanol] to a final total protein concentration of 1 μg/μl and heated at 95° C. for 5 minutes. Twenty micrograms of samples were loaded onto NuPAGE™ 4-12% Bis-Tris gradient gels (Life Technologies) along with 3 μl of BIO-RAD protein marker (Precision Plus Protein™ All Blue Prestained Protein Standards #1610373 kDa), gels were run in duplicates at 110V for 2 hours and 30 minutes with the NuPAGE™ MOPS SDS running buffer (Life Technologies, Cat #NP0001-02). After electrophoresis, the separated proteins were transferred onto the nitrocellulose membrane (GE Healthcare, Amersham Protran 0.45 μm NC) at 90 V for 90 minutes. Transferred membranes were briefly stained with Ponceau S stain and divided into 3 strips, as described earlier in Fan et al., Biochem. J. 475:23-44 (2018). Briefly, upper strip was cut from the top of the membrane to 75 kDa, middle strip cut was between 75 kDa—30 kDa and bottom strip cut was from 30 kDa—to the bottom of the membrane. Membrane strips were blocked at room temperature with 5% (w/v) dried skimmed milk dissolved in TBS-T [20 mM Tris-HCl, pH 7.5, 150 mM NaCl and 0.1% (v/v) Tween® 20] for 1 hour, washed four times with ten minutes intervals in TBS-T and incubated with primary antibodies diluted in 5% BSA (bovine serum albumin) in TBS-T overnight at 4° C. […]
In general terms: Immunoblotting shows a protein as a band on a membrane.

Assay [3] concerns Rab10 (phospho T73). The assay can be described thus: Inhibition of phosphorylation of Rab10, Western blot in MEFs. It counts as cell-based, Mouse. The following applies: Western blot, time course, 0 nM-1000 nM. How it is done: as §1, §2, §3, §4, §5, §6, §7
Assay [4] addresses T2, LRRK2 wt (Homo sapiens, UniProt Q5S007).
T2 construct: purchased Invitrogen
The experiment in a line: IC50 experiments, Invitrogen Adapta assay, LRRK2 wt. It counts as biochemical. The method, then:
(§8) IC50 experiments were performed using Invitrogen™'s Adapta™ assay.

Assay [5] concerns the target T3, LRRK2 G2019S (Homo sapiens, UniProt Q5S007, G2019S).
T3 construct: purchased Invitrogen
The experiment in a line: IC50 experiments, Invitrogen Adapta assay, LRRK2 G2019S. The format is biochemical. The method, then: as §8

For assay [6], the system named is LRRK2. The experiment in a line: Cellular degradation of LRRK2, Western blot in MEFs. The conditions noted are these: Western blot, time course, 0 nM-1000 nM. It counts as cell-based, Mouse. How it is done:
as §1, §2, §3, §4, §5, §6, §7

T1 sequence (Q5S006 whole entry R1441C): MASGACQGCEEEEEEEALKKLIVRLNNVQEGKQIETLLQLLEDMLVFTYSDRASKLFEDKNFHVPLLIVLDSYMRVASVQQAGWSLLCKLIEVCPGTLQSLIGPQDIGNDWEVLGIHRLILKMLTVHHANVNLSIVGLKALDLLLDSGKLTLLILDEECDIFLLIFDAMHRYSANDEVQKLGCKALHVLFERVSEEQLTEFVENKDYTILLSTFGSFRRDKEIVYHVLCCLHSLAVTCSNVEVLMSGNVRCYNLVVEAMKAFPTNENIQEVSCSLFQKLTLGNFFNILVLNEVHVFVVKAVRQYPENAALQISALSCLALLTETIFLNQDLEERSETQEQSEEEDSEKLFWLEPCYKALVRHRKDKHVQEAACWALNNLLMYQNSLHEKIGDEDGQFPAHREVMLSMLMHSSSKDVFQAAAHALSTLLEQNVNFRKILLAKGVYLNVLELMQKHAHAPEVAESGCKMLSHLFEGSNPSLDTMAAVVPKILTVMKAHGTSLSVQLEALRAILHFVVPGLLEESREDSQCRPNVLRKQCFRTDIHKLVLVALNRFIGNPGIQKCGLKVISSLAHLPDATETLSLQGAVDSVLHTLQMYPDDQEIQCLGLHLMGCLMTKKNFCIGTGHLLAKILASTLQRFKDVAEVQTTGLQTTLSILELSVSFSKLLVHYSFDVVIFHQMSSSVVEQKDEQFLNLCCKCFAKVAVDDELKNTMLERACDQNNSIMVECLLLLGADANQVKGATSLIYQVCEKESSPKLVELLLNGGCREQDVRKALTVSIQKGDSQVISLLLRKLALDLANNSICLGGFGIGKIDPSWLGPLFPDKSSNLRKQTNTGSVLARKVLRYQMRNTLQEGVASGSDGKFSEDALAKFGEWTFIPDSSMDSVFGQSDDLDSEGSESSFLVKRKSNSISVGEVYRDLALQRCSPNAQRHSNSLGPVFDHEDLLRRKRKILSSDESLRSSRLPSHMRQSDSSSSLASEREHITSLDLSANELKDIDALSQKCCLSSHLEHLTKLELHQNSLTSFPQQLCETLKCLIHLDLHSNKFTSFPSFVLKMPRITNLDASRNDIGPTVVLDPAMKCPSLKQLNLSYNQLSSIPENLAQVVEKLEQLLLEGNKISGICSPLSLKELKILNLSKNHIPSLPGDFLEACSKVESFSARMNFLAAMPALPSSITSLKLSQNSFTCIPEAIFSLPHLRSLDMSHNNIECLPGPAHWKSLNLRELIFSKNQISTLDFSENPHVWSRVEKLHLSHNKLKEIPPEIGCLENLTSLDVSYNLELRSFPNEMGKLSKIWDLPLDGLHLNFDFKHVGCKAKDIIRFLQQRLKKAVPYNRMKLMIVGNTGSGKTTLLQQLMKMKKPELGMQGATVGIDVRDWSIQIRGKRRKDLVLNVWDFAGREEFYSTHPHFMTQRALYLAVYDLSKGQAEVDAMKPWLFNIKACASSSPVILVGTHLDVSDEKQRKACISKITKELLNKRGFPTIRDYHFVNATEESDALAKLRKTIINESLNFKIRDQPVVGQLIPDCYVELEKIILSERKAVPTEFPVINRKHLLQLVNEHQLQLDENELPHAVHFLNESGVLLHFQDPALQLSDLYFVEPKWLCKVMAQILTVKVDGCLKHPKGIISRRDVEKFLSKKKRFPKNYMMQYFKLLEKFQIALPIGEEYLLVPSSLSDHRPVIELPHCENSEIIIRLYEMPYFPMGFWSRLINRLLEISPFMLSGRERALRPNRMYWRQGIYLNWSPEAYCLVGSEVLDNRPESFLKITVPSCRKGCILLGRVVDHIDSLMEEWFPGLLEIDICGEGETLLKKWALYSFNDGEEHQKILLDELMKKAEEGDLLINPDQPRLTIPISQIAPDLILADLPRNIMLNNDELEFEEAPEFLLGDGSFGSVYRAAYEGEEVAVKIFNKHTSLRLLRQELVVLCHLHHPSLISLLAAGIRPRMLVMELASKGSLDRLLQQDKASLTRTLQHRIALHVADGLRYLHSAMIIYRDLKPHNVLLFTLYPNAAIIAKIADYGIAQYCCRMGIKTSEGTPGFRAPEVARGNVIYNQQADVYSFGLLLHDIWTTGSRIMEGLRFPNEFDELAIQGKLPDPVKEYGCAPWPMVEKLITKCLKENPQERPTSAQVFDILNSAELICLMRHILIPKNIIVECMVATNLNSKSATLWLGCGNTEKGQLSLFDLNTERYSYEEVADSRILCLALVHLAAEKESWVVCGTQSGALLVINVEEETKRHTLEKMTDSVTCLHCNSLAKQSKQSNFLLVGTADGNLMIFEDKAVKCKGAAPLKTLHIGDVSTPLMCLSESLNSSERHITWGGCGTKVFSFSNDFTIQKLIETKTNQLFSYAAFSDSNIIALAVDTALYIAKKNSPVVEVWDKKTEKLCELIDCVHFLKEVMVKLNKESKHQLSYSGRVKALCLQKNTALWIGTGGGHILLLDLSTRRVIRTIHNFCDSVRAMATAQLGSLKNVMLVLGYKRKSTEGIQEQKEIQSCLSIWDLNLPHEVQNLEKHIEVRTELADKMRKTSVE
T3 sequence (Q5S007 whole entry G2019S): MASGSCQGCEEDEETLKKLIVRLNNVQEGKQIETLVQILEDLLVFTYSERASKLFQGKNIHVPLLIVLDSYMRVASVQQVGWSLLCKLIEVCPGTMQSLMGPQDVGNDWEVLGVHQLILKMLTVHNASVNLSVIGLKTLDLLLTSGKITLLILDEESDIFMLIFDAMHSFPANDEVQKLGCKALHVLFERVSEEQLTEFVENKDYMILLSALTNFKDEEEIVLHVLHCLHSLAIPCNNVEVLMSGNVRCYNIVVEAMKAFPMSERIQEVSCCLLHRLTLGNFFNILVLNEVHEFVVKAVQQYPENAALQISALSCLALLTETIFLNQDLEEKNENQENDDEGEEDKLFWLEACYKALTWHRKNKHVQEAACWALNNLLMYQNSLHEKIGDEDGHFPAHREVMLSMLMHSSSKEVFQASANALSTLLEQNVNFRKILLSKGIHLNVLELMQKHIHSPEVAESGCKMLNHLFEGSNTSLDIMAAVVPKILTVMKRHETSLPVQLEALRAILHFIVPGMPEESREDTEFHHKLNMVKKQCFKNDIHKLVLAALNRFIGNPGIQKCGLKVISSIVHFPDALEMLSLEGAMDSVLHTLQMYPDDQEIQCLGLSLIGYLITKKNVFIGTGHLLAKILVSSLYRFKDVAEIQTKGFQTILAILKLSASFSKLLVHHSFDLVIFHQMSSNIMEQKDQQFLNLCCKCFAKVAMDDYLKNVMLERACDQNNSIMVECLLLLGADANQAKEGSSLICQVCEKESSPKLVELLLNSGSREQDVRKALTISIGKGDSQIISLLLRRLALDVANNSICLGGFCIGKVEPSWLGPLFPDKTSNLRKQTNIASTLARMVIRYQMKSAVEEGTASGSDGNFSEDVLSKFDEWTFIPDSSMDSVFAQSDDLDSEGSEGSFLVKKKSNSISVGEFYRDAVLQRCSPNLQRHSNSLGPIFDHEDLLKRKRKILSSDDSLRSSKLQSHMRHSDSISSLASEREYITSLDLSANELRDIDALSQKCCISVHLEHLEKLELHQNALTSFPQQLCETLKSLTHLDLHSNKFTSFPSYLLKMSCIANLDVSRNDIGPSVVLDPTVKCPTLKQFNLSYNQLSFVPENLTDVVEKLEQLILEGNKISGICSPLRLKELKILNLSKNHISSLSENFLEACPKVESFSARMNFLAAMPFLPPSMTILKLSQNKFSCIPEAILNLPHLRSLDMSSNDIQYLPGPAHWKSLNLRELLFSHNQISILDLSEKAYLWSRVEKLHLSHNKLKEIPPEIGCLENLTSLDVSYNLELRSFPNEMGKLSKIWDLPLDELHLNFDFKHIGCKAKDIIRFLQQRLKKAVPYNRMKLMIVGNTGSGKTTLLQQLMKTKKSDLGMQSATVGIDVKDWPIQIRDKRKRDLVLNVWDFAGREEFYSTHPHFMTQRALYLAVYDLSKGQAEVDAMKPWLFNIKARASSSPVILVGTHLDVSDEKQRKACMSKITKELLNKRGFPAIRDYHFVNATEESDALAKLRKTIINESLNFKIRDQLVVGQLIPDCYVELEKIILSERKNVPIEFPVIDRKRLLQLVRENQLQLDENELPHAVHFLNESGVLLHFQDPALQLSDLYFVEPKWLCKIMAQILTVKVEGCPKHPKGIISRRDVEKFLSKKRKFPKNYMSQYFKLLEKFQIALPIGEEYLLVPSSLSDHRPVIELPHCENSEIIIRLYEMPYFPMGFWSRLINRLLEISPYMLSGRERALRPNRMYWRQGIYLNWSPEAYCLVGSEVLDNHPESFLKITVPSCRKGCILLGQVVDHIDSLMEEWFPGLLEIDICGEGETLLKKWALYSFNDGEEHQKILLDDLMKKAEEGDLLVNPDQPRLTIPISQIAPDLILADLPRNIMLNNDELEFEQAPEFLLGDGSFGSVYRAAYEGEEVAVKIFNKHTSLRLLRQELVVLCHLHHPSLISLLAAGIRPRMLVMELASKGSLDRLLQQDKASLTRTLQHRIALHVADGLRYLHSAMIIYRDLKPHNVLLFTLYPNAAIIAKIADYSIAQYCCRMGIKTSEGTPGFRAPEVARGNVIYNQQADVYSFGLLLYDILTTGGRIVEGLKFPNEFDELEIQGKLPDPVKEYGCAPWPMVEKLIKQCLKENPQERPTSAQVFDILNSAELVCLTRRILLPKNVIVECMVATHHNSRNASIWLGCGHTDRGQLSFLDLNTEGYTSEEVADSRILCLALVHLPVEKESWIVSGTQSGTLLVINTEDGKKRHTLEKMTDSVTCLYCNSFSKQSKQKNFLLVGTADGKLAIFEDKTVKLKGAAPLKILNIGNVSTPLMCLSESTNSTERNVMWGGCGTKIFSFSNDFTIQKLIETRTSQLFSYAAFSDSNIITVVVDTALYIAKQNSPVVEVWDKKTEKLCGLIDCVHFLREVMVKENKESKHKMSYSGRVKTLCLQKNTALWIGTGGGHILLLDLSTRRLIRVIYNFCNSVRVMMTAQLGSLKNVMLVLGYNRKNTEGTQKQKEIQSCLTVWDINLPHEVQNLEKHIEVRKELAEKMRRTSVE
T2 sequence (Q5S007 whole entry): as the sequence (Q5S007 whole entry G2019S) above, with S2019G counted along it

As a reminder, the IC50 is the concentration needed to halve the response being measured. A lower IC50 goes with greater potency in that assay. For `CNc1nc(Nc2ccc(C(=O)N3CCN(C(=O)CCCCCCCCOc4cccc5c4C(=O)N(C4CCC(=O)NC4=O)C5=O)CC3)cc2OC)ncc1C(F)(F)F` (stereo not drawn) [Compound 3, 2-(2,6-dioxopiperidin-3-yl)-4-((9-(4-(3-methoxy-4-((4-(methylamino)-5-(trifluoromethyl)pyrimidin-2-yl)amino)benzoyl)piperazin-1-yl)-9-oxononyl)oxy)isoindoline-1,3-dione], in assay [1], the “degradation of LRRK2 (C-terminus)” value is “observed”. Also, the “inhibition of phosphorylation of S935” value in assay [2] was “inhibited”. Moreover, the “inhibition of phosphorylation of Rab10” value in assay [3] was “inhibited”. For the same compound, the IC50 was 2 nM in assay [4] and 1 nM in assay [5]. For the same compound, in assay [6], the “degradation of LRRK2 (total level)” value was “did not degrade”.
